Reference: patent publication US20130023555A1, “KINASE INHIBITOR WITH IMPROVED SOLUBILITY PROFILE” (Abbott Laboratories, priority 2011, published 2013)
Converted amounts (≈) assume the structure as drawn.

How the values were obtained:
[1] = molecular target: T1, cKIT (Homo sapiens, UniProt P10721); experiment: HTRF in vitro kinase assay, cKIT; assay type: biochemical; conditions: 1 mM ATP
T1 construct: GST
Protocol: To determine the activity of the various kinases, a homogenous time-resolved fluorescence (HTRF) in vitro kinase assay was used. (Mathis, G., HTRF(R) Technology. J Biomol Screen, 1999. 4(6): p. 309-314; Alfred J. Kolb, Paul V. Kaplita, David J. Hayes, Young-Whan Park, Christine Pernell, John S. Major and Gerard Mathis, Drug Discovery Today, 1998, 3, 333-342.)
For example for KDR, cKIT, FLT1, CSF1R and FTL3, purified enzyme was mixed with 0.5 μM N-biotinylated substrate (Biotin-Ahx-[…]-amide (SEQ. ID. 1)), various concentrations of inhibitor in reaction buffer (50 mM HEPES, pH 7.1, 10 mM MgCl2, 2 mM MnCl2, 0.1% BSA and 1 mM DTT, 40 μL final volume), ATP (1 mM final conc.) in a black 384-well plate. After 60 minutes incubation at room temperature, the reaction was quenched by addition of a buffered EDTA solution (final approximate concentrations: 30 mM EDTA, 0.1% BSA, 0.1% Triton X-100 and 0.24M KF) and a solution of revelation agents (to give 0.084 ng/well streptavidin-XL-665 (Cis-Bio) and 6.5 ng/well antiphsophotyrosine mAb PT66-K Europium kryptate) was added to the reaction mixture. The quenched reaction was allowed to stand at room temperature for 3 hours and was then read in a time-resolved fluorescence detector (InVision, Perkin-Elmer) at 620 nm and 665 nm sequentially with excitation. The ratio between the signal of 620 nm and 665 nm was used in the calculation of the IC50.

[2] = molecular target: T2, CYP3A4 (Homo sapiens, UniProt P08684); experiment: CYP 3A4 Assay (Luc, luminescence, human liver microsomes); assay type: in vitro ADME; conditions: human liver microsomes 0.4 mg/mL, substrate LUC-LIPA
T2 construct: The incubations consisted of human liver microsomal protein at 0.4 mg/ml; from tissue; host or cells: human liver microsomes
T2 sequence (P08684 whole entry): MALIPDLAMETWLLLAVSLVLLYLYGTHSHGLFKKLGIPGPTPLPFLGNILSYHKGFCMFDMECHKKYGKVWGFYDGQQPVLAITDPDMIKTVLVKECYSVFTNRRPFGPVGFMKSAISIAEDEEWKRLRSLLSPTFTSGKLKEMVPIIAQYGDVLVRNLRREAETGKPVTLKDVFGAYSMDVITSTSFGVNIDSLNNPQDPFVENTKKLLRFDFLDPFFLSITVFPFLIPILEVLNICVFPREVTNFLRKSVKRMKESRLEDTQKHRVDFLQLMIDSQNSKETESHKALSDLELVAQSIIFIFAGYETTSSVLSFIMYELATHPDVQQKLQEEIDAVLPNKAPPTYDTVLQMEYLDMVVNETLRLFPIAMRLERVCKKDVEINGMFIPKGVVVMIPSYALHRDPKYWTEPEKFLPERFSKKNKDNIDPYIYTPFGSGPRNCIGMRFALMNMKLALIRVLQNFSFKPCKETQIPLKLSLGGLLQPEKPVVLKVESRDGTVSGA
Protocol: Each assay was preformed in ½ well plates. Test compounds were examined at six concentrations in DMSO that were serial diluted to: 2, 0.6, 0.2, 0.07, 0.02, and 0.007 mM (from left to right) and at 100×; 0.5 ul of these dilutions were added to two empty assay plates (resulting in final assay concentrations of 20, 6, 2, 0.7, 0.2, and 0.07 uM. The control and vehicle were added to the plate at 100× with the same dilution scheme.
The incubations consisted of human liver microsomal protein at 0.4 mg/ml in 100 mM KPO4 buffer, 125 uM NADPH and Regeneration mix in phosphate buffer at pH 7.4.
CYP3A4 requires a pre-incubation using the following recipe:
• CYP3A4—5 μM LUC-LIPA in 100 mM phosphate buffer pH 7.4 • Assay Procedure for CYP3A4: • 1. 40 uL of the Pre-incubation Mixture was added to all wells of the assay plates. • 2. Plates were pre-incubated for 10 minutes at 37° C., with shaking or rocking. (No pre-read is necessary for the luminescence assays CYP2C9 and CYP3A4). • 3. 10 μL of Substrate Solution was added to all wells of the assay plates. • 4. Plates were incubated for an additional 25 minutes at 37° C., with shaking or rocking. • 5. added 50 μl of stop/developer from respective kits, and incubated for 20 minutes to 2 hours with shaking at room temperature prior to reading. […]

[3] = Determination of Thermodynamic Solubility; assay type: physicochemical; conditions: for solubility: thermodynamic from solid
Protocol: Aqueous pH 7.4 and PEG 300 samples were tested at 25° C. Excess amount of the bulk drug was weighed out and mixed with an aliquot of target media in a clear glass vial (n=3/solvent). The vial was capped, wrapped with aluminum foil, and tumbled in a 25° C. water bath. When equilibration was completed, the samples were removed from the water bath and the final pH was measured, if applicable. The samples were centrifuged at 25° C. at 3000 rpm for 20 minutes. The supernatant was filtered through 4 mm 0.45 μm PTFE syringe filters. The filtrate was assayed after appropriate dilution (no dilution required for aqueous samples). The concentration of the sample was calculated against a calibration curve for the compound.
Solubility in pH 7.4 buffer was carried out as described above, except samples were not centrifuged before filtration. All other experimental steps were the same. PEG 300 and PEG 400 solubility were done at ambient temperature. Excess amount of the bulk drug was weighed out and mixed with an aliquot of target media in a clear glass vial with a small stir bar (n=3). The vials were placed on the stirrer at ˜500 rpm and allowed to equilibrate over the weekend. Samples were filtered through 13 mm 0.45 μm GHP syringe filters. The filtrate was assayed after appropriate dilutions, and concentrations determined against a calibration curve for the compound.

[4] = CLND Solubility Assay; assay type: physicochemical; conditions: aqueous buffer, kinetic from dmso stock; 35 μM compound in 10 mM phosphate buffer, pH 7.2
Protocol: Chemiluminescent nitrogen detection (CLND) method oxidized the analyte to nitrogen oxide that reacted with ozone to provide a photon of light and was a measure of how much compound was in solution. Compounds must contain nitrogens for this experiment. Nitrogen impurities present in the compound will cause falsely high results. • 1. Compound concentration tested was 35 μM in 10 mM phosphate buffer, 7.2. • 2. Compounds were tested in triplicate. • 3. Compound concentration was determined by comparing readings to a caffeine standard curve. One standard curve was run before and after every test plate. For 3 test plates, four standard curves were generated.
Experimental Procedure: • 1. 5 μl of 5 mM test compound in DMSO was added to three adjacent wells in a plate. • 2. 695 μl of 10 mM phosphate buffer, pH 7.2, was added to each well. • 3. The plates were sealed. • 4. The plates were allowed to sonicate for 1 hour. • 5. The plates were shook on a plate orbital shaker for up to 6 hours. • 6. The plates were spinned at 5000 rpm (6000×G) overnight. • 7. Standard curves were prepared by adding 5 μl of stock solutions to wells according to Caffeine Concentrations for Standard Curve table below. • 8. Buffer (10 mM phosphate buffer, pH 7.2, 695 μl) was added. • 9. The plates were sealed. • 10. The plates were loaded onto a TOC/CLND. • 11. The results were analyzed after the run was completed.
The solubility was determined by comparing the reading generated by analysis of the sample to the standard curve. The value was then divided by the number of nitrogens contained in the compound. Corrections for impurities during the synthesis were included in the number of nitrogens. The resulting value was the reported solubility.

T1 sequence (P10721 544-976 limits assumed): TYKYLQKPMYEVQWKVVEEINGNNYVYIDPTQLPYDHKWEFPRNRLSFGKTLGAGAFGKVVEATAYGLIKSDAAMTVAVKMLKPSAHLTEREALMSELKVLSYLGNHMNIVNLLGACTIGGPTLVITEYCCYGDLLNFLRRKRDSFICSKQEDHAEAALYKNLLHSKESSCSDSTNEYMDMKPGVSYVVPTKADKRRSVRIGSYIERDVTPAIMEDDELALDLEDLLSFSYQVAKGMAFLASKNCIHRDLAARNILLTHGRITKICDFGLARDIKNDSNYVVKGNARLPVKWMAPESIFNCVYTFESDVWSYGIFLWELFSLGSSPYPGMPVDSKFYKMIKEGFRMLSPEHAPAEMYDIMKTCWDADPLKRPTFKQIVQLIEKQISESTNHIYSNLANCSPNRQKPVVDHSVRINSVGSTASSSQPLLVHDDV

CCN(CC)CCCNC(=O)c1cnc(N)c2c(-c3ccc(NC(=O)Nc4cccc(F)c4)cc3)csc12 [Example 1, 4-amino-N-[3-(diethylamino)propyl]-3-(4-{[(3-fluorophenyl)carbamoyl]amino}phenyl)thieno[3,2-c]pyridine-7-carboxamide]
IC50 [1]: 35 nM | IC50 [2]: > 20000 nM | solubility ([3]; PEG 300, 25 °C, organic solvent or mixture, PEG 300, Example 2 at 25° C., Example 1 at ambient temperature, read-out: Solubility (PEG300)): 132 mg/mL (≈ 247 mM) | Solubility (PEG300) ([3]; PEG 300, Example 2 at 25° C., Example 1 at ambient temperature): >125 mg/mL | solubility ([3]; PEG 400, organic solvent or mixture, PEG 400, ambient temperature, read-out: Solubility PEG 400): 124 mg/mL (≈ 232 mM) | solubility ([3]; phosphate buffer, 25 °C, pH 7.4, aqueous buffer, 50 mM phosphate pH 7.4 buffer, 25° C., read-out: Solubility pH 7.4): 0.0171 mg/mL (≈ 0.032 mM) | solubility [4]: 70.8 µM (≈ 37.8 µg/mL)
